Values of other authors, collected in paper PMC4112557 (Bioconjugate Chemistry, 2014).
Where a SMILES comes first, the peptide text is derived from it.

Target: PSMA (Homo sapiens, UniProt Q04609)
Conditions: hydrolysis of NAAG in the amplex red assay

PSMA, sequence (Q04609 whole entry): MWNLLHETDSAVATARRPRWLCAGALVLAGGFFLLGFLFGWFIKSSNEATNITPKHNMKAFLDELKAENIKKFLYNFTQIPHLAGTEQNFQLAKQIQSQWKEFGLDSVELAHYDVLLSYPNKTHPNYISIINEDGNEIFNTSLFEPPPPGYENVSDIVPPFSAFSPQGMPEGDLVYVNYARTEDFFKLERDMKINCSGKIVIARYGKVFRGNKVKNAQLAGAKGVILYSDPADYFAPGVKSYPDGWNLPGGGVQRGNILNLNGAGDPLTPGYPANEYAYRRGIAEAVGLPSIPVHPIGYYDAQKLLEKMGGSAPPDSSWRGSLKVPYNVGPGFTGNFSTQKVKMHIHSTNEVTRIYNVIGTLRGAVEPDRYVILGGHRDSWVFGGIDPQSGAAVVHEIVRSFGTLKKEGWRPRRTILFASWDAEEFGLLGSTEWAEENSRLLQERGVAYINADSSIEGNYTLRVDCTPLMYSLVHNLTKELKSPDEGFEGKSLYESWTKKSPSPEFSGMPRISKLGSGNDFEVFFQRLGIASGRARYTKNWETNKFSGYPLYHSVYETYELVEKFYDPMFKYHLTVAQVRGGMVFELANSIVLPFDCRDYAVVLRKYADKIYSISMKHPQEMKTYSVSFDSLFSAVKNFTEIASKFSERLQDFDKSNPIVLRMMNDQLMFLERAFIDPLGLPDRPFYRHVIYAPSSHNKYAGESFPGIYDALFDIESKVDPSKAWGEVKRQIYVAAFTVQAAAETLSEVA

CC(=O)N[C@@H](CC(=O)O)C(=O)N[C@@H](CCC(=O)O)C(=O)O [NAAG, N-acetylaspartylglutamic acid] (Ac-Asp-Glu-OH)
Km: 1150 nM
